# From US10364256B2 (GlaxoSmithKline Intellectual Property Development Limited, priority 2015, dated 2019)
# Legend:
# [1] = biological target: T1, Keap1 Kelch domain (321-609) / TAMRA-labeled 16mer NRF2 peptide (ETGE motif) (Homo sapiens, UniProt Q14145); experiment: NRF2-Keap1 FP Assay (Keap1 Kelch fluorescence polarization); format: binding; settings: 20 nM Keap1 (321-609), 8 nM Tamra labeled peptide
# T1 construct: the Kelch domain (321-609) of Keap1 is used
# In short: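 Compound dilutions (3-fold) were incubated 1 hr at room temperature with 20 nM Keap1 Kelch (321-609) and 8 nM TAMRA-labeled ETGE 16mer peptide. Buffer was 50 mM Tris pH 8.0, 100 mM NaCl, 5 mM MgCl2, 1 mM DTT, 2 mM CHAPS, 0.005% BSA. Fluorescence polarization (mP) was normalized to controls and fitted with a four-parameter equation to give pIC50.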
# [2] = biological target: T2, full length Keap1 protein / full length NRF2 protein (Homo sapiens, UniProt Q14145); experiment: NRF2-Keap1 TR-FRET Assay; format: binding; settings: 25 nM Keap1-FlagHis and 50 nM biotin-NRF2 added
# T2 construct: full length NRF2 protein and full length Keap1 protein (Keap1 exists a dimer) are used; His
# T2 sequence (Q14145 whole entry): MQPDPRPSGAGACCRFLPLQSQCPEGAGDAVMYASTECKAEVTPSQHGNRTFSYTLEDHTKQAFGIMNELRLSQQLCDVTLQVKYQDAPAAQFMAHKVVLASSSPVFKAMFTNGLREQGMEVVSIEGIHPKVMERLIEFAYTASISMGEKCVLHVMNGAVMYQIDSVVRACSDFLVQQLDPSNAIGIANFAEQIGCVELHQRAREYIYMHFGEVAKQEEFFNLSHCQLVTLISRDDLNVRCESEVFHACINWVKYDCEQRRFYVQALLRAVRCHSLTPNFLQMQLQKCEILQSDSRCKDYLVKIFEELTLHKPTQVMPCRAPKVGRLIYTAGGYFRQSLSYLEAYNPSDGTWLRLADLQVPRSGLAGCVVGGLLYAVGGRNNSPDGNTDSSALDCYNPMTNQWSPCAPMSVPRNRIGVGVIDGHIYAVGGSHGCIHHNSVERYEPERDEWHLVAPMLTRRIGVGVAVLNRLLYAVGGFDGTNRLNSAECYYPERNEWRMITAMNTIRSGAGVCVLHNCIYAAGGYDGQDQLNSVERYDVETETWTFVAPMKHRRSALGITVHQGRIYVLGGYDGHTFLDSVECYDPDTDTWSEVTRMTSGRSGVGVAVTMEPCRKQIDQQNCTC
# In short: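 Full-length Keap1-FlagHis preincubated with compound 2.25 h at 37 °C, then biotin-NRF2 added for 1.25 h at 4 °C, in Tris pH 8.0 with MgCl2, NaCl, BSA, DTT, CHAPS. TR-FRET 665/615 nm ratio normalised to with- and without-protein 1% DMSO controls; pIC50 from four-parameter fit.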
# T1 sequence (Q14145 321-609): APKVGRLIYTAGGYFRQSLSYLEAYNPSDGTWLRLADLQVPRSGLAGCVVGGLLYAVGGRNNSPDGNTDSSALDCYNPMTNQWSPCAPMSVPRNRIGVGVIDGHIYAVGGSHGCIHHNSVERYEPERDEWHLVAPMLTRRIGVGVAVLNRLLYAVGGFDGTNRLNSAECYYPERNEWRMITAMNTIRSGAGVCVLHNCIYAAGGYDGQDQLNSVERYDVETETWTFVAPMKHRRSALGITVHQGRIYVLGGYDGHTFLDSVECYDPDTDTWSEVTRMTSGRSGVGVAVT
Structure (SMILES),IC50 [1] [µM],IC50 [2] [µM]
"Cn1cc(C2CC2c2c(C(=O)O)cnn2-c2cccc(-c3cccc(SCC4CCCCC4)c3)c2)nn1 (centres unmarked) [Example 179, 1-(3′-((Cyclohexylmethyl)thio)-[1,1′-biphenyl]-3-yl)-5-(2-(1-methyl-1H-1,2,3-triazol-4-yl)cyclopropyl)-1H-pyrazole-4-carboxylic acid]",0.01 to 0.1,0.1 to 1
"COC(c1cccc(-c2cccc(-n3ncc(C(=O)O)c3C3CC3c3cn(C)nn3)c2)c1)C1CCCC1 (centres unmarked) [Example 183, 1-(3′-(Cyclopentyl(methoxy)methyl)-[1,1′-biphenyl]-3-yl)-5-(2-(1-methyl-1H-1,2,3-triazol-4-yl)cyclopropyl)-1H-pyrazole-4-carboxylic acid]",0.01 to 0.1,0.1 to 1
"Cc1nn(-c2cccc(-c3cccc(OCC4CCCCC4)c3)c2)c(C2CC2c2cn(C)nn2)c1C(=O)O (centres unmarked) [Example 188, 1-(3′-(cyclohexylmethoxy)-[1,1′-biphenyl]-3-yl)-3-methyl-5-(2-(1-methyl-1H-1,2,3-triazol-4-yl)cyclopropyl)-1H-pyrazole-4-carboxylic Acid]",0.1 to 1,1 to 10
"CC1(C)CCc2cnn(-c3cccc(-c4cccc(-n5ncc(C(=O)O)c5C(F)(F)F)n4)c3)c21 [Example 204, 1-(6-(3-(6,6-Dimethyl-5,6-dihydrocyclopenta[c]pyrazol-1(4H)-yl)phenyl)pyridin-2-yl)-5-(trifluoromethyl)-1H-pyrazole-4-carboxylic Acid]",0.1 to 1,1 to 10
"CCCC1(C)CCc2cnn(-c3cccc(-c4cccc(-n5ncc(C(=O)O)c5C5CC5)c4)c3)c21 (centres unmarked) [Example 205, 5-Cyclopropyl-1-(3′-(6-methyl-6-propyl-5,6-dihydrocyclopenta[c]pyrazol-1(4H)-yl)-[1,1′-biphenyl]-3-yl)-1H-pyrazole-4-carboxylic Acid]",0.1 to 1,0.1 to 1
"CCCCC1CCc2cnn(-c3cccc(-c4cccc(-n5ncc(C(=O)O)c5C5CC5)c4)c3)c21 (centres unmarked) [Example 206, 1-(3′-(6-Butyl-5,6-dihydrocyclopenta[c]pyrazol-1(4H)-yl)-[1,1′-biphenyl]-3-yl)-5-cyclopropyl-1H-pyrazole-4-carboxylic Acid]",0.1 to 1,1 to 10
"Cn1cc(C2CC2c2c(C(=O)O)cnn2-c2cccc(-c3cccc(-n4ncc5c4C(C)(C)CC5)c3)c2)nn1 (centres unmarked) [Example 212, 1-(3′-(6,6-Dimethyl-5,6-dihydrocyclopenta[c]pyrazol-1(4H)-yl)-[1,1′-biphenyl]-3-yl)-5-(2-(1-methyl-1H-1,2,3-triazol-4-yl)cyclopropyl)-1H-pyrazole-4-carboxylic Acid]",0.01 to 0.1,0.01 to 0.1
"CCC[C@@H]1CCCCN1C(=O)c1cccc(-c2cccc(-n3ncc(C(=O)O)c3C3CC3c3cnn(C)c3)c2)c1 (stereo partly drawn) [Example 213, 5-(2-(1-Methyl-1H-pyrazol-4-yl)cyclopropyl)-1-(3′-((R)-2-propylpiperidine-1-carbonyl)-[1,1′-biphenyl]-3-yl)-1H-pyrazole-4-carboxylic Acid]",0.01 to 0.1,0.01 to 0.1
"COC(CC1CCCCC1)c1cccc(-c2cccc(-n3ncc(C(=O)O)c3C3CC3c3cn(C)nn3)c2)c1 (centres unmarked) [Example 216, 1-(3′-(2-Cyclohexyl-1-methoxyethyl)-[1,1′-biphenyl]-3-yl)-5-(2-(1-methyl-1H-1,2,3-triazol-4-yl)cyclopropyl)-1H-pyrazole-4-carboxylic Acid]",0.01 to 0.1,0.1 to 1
"CC(Oc1cccc(-c2cccc(-n3ncc(C(=O)O)c3C3CC3c3cn(C)nn3)c2)c1)C1CCCCC1 (centres unmarked) [Example 219, 1-(3′-(1-Cyclohexylethoxy)-[1,1′-biphenyl]-3-yl)-5-(2-(1-methyl-1H-1,2,3-triazol-4-yl)cyclopropyl)-1H-pyrazole-4-carboxylic acid]",0.01 to 0.1,0.1 to 1
Cn1cc(C2CC2c2c(C(=O)O)cnn2-c2cccc(-c3cccc(OCc4ccccc4)c3)c2)nn1 (centres unmarked) [Example 221],0.1 to 1,0.1 to 1
"Cn1cc(C2CC2c2c(C(=O)O)cnn2-c2cccc(-c3cccc(OCc4ccccc4F)c3)c2)nn1 (centres unmarked) [Example 222, 1-(3′-((2-Fluorobenzyl)oxy)-[1,1′-biphenyl]-3-yl)-5-(2-(1-methyl-1H-1,2,3-triazol-4-yl)cyclopropyl)-1H-pyrazole-4-carboxylic acid]",0.01 to 0.1,0.1 to 1
"Cn1cc(C2CC2c2c(C(=O)O)cnn2-c2cccc(-c3cccc(OCc4ccc(F)cc4)c3)c2)nn1 (centres unmarked) [Example 223, 1-(3′-((4-Fluorobenzyl)oxy)-[1,1′-biphenyl]-3-yl)-5-(2-(1-methyl-1H-1,2,3-triazol-4-yl)cyclopropyl)-1H-pyrazole-4-carboxylic acid]",0.1 to 1,1 to 10
"Cn1cc(C2CC2c2c(C(=O)O)cnn2-c2cccc(-c3cccc(OCc4cccc(F)c4)c3)c2)nn1 (centres unmarked) [Example 224, 1-(3′-((3-Fluorobenzyl)oxy)-[1,1′-biphenyl]-3-yl)-5-(2-(1-methyl-1H-1,2,3-triazol-4-yl)cyclopropyl)-1H-pyrazole-4-carboxylic acid]",0.1 to 1,0.1 to 1
"Cn1cc(C2CC2c2c(C(=O)O)cnn2-c2cccc(-c3cccc(OCCC(C)(C)C)c3)c2)nn1 (centres unmarked) [Example 225, 1-(3′-(3,3-Dimethylbutoxy)-[1,1′-biphenyl]-3-yl)-5-(2-(1-methyl-1H-1,2,3-triazol-4-yl)cyclopropyl)-1H-pyrazole-4-carboxylic acid]",0.01 to 0.1,0.1 to 1
"CC(Oc1cccc(-c2cccc(-n3ncc(C(=O)O)c3C3CC3c3cn(C)nn3)c2)c1)C1CCOCC1 (centres unmarked) [Example 227, 5-(2-(1-Methyl-1H-1,2,3-triazol-4-yl)cyclopropyl)-1-(3′-(1-(tetrahydro-2H-pyran-4-yl)ethoxy)-[1,1′-biphenyl]-3-yl)-1H-pyrazole-4-carboxylic Acid]",0.01 to 0.1,0.01 to 0.1

# Other lines, results leading:
IC50 [1] [µM],IC50 [2] [µM],Structure (SMILES)
0.01 to 0.1,0.01 to 0.1,"CCC[C@@H]1CCCCN1C(=O)c1cccc(-c2cccc(-n3ncc(C(=O)O)c3C3CC3c3cn(C)nn3)n2)c1 (stereo partly drawn) [Example 196, 5-(2-(1-Methyl-1H-1,2,3-triazol-4-yl)cyclopropyl)-1-(6-(3-((R)-2-propylpiperidine-1-carbonyl)phenyl)pyridin-2-yl)-1H-pyrazole-4-carboxylic Acid]"
0.01 to 0.1,0.01 to 0.1,"CCC[C@@H]1CCCCN1C(=O)c1cncc(-c2cccc(-n3ncc(C(=O)O)c3C3CC3c3cn(C)nn3)c2)c1 (stereo partly drawn) [Example 197, 5-(2-(1-Methyl-1H-1,2,3-triazol-4-yl)cyclopropyl)-1-(3-(5-((R)-2-propylpiperidine-1-carbonyl)pyridin-3-yl)phenyl)-1H-pyrazole-4-carboxylic acid]"
0.01 to 0.1,0.01 to 0.1,"CCC[C@@H]1CCCCN1C(=O)c1cccc(-c2cccc(-n3nc(C)c(C(=O)O)c3C3CC3c3cn(C)nn3)c2)c1 (stereo partly drawn) [Example 202, 3-Methyl-5-(2-(1-methyl-1H-1,2,3-triazol-4-yl)cyclopropyl)-1-(3′-((R)-2-propylpiperidine-1-carbonyl)-[1,1′-biphenyl]-3-yl)-1H-pyrazole-4-carboxylic acid]"
1 to 10,10 to 100,"CCc1nc(-c2cccc(-c3cccc(-n4ncc(C(=O)O)c4C4CC4)c3)c2)no1 [Example 209, 5-Cyclopropyl-1-(3′-(5-ethyl-1,2,4-oxadiazol-3-yl)-[1,1′-biphenyl]-3-yl)-1H-pyrazole-4-carboxylic Acid]"
> 10,> 100,"Cc1nnc(-c2cccc(-c3cccc(-n4ncc(C(=O)O)c4C4CC4)c3)c2)o1 [Example 210, 5S-Cyclopropyl-1-(3′-(5-methyl-1,3,4-oxadiazol-2-yl)-[1,1′-biphenyl]-3-yl)-1H-pyrazole-4-carboxylic acid]"
0.01 to 0.1,0.01 to 0.1,"CCC[C@@H]1CCCCN1C(=O)c1cccc(-c2cccc(-n3ncc(C(=O)O)c3C3CC3c3cnn(C)c3)c2)c1F (stereo partly drawn) [Example 214, 1-(2′-Fluoro-3′-((R)-2-propylpiperidine-1-carbonyl)-[1,1′-biphenyl]-3-yl)-5-(2-(1-methyl-1H-pyrazol-4-yl)cyclopropyl)-1H-pyrazole-4-carboxylic Acid]"
0.01 to 0.1,0.1 to 1,"Cn1cc(C2CC2c2c(C(=O)O)cnn2-c2cccc(-c3cccc(C(=O)CC4CCCCC4)c3)c2)nn1 (centres unmarked) [Example 215, 1-(3′-(2-Cyclohexylacetyl)-[1,1′-biphenyl]-3-yl)-5-(2-(1-methyl-1H-1,2,3-triazol-4-yl)cyclopropyl)-1H-pyrazole-4-carboxylic Acid]"
0.1 to 1,0.1 to 1,"Cn1cc(C2CC2c2c(C(=O)O)cnn2-c2cccc(-c3cccc(C(O)CC4CCCCC4)c3)c2)nn1 (centres unmarked) [Example 217, 1-(3′-(2-Cyclohexyl-1-hydroxyethyl)-[1,1′-biphenyl]-3-yl)-5-(2-(1-methyl-1H-1,2,3-triazol-4-yl)cyclopropyl)-1H-pyrazole-4-carboxylic acid]"
0.01 to 0.1,0.1 to 1,"CC(CC1CCCCC1)Oc1cccc(-c2cccc(-n3ncc(C(=O)O)c3C3CC3c3cn(C)nn3)c2)c1 (centres unmarked) [Example 218, 1-(3′-((1-Cyclohexylpropan-2-yl)oxy)-[1,1′-biphenyl]-3-yl)-5-(2-(1-methyl-1H-1,2,3-triazol-4-yl)cyclopropyl)-1H-pyrazole-4-carboxylic Acid]"
